In ChEMBL document CHEMBL1781991, “Heteroalicyclic carboxamidines as inhibitors of inducible nitric oxide synthase; the identification of (2R)-2-pyrrolidinecarboxamidine as a potent and selective haem-co-ordinating inhibitor” (Bioorg Med Chem Lett, 2011) one finds IC50 and Kd data, which are given here for 15 molecules.

Each structure is given as a SMILES string.

A word on the IC50: it is the concentration that inhibits the measured activity by half. In general, Kd refers to the concentration at which binding is half-saturated.

Assay [1] concerns the target T1, Nitric oxide synthase, inducible (Homo sapiens, UniProt P35228). Nature of the assay: Inhibition of human recombinant iNOS by microtiter plate assay.
In another assay the target is T2, Nitric oxide synthase 3 (Homo sapiens, UniProt P29474).
T2 sequence (P29474 whole entry): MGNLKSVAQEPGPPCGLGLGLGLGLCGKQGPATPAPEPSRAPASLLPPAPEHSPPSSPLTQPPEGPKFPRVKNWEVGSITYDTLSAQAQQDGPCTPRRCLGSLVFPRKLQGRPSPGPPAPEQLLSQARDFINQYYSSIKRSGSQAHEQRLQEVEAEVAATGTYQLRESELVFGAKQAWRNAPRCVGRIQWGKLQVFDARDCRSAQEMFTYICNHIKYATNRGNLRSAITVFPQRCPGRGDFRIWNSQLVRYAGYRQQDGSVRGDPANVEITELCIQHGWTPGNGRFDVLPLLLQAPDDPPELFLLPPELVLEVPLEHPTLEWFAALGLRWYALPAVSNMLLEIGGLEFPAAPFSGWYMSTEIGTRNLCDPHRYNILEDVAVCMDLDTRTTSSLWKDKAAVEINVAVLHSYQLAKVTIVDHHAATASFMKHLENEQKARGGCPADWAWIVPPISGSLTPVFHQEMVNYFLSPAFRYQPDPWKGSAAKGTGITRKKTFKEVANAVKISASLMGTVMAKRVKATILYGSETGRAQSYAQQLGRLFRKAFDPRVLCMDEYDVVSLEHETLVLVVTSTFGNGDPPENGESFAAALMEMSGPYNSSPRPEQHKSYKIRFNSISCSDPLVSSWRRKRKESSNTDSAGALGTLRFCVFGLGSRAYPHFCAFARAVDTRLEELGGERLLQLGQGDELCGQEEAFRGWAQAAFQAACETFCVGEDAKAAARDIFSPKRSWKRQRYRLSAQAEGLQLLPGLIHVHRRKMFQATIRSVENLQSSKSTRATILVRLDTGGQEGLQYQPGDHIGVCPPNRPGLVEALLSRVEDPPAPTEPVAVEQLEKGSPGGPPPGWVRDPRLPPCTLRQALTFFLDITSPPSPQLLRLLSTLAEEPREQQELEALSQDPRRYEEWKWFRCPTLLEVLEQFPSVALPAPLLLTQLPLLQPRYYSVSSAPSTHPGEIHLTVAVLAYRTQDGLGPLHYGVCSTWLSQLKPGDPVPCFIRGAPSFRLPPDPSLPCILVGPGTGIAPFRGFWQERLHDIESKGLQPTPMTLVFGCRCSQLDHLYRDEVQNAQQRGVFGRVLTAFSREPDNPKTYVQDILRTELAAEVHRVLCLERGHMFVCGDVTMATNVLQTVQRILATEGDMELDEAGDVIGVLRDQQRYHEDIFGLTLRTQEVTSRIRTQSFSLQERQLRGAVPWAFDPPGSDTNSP
Nature of the assay: Inhibition of human recombinant eNOS by microtiter plate assay.

A further assay deals with Nitric oxide synthase 1 (Homo sapiens, UniProt P29475). Briefly: Inhibition of human recombinant nNOS by microtiter plate assay.
Assay [2] addresses T1, Nitric oxide synthase, inducible. Briefly: Binding affinity to human recombinant iNOS delta 65 residue.

Sequence of Nitric oxide synthase 1 (P29475 whole entry): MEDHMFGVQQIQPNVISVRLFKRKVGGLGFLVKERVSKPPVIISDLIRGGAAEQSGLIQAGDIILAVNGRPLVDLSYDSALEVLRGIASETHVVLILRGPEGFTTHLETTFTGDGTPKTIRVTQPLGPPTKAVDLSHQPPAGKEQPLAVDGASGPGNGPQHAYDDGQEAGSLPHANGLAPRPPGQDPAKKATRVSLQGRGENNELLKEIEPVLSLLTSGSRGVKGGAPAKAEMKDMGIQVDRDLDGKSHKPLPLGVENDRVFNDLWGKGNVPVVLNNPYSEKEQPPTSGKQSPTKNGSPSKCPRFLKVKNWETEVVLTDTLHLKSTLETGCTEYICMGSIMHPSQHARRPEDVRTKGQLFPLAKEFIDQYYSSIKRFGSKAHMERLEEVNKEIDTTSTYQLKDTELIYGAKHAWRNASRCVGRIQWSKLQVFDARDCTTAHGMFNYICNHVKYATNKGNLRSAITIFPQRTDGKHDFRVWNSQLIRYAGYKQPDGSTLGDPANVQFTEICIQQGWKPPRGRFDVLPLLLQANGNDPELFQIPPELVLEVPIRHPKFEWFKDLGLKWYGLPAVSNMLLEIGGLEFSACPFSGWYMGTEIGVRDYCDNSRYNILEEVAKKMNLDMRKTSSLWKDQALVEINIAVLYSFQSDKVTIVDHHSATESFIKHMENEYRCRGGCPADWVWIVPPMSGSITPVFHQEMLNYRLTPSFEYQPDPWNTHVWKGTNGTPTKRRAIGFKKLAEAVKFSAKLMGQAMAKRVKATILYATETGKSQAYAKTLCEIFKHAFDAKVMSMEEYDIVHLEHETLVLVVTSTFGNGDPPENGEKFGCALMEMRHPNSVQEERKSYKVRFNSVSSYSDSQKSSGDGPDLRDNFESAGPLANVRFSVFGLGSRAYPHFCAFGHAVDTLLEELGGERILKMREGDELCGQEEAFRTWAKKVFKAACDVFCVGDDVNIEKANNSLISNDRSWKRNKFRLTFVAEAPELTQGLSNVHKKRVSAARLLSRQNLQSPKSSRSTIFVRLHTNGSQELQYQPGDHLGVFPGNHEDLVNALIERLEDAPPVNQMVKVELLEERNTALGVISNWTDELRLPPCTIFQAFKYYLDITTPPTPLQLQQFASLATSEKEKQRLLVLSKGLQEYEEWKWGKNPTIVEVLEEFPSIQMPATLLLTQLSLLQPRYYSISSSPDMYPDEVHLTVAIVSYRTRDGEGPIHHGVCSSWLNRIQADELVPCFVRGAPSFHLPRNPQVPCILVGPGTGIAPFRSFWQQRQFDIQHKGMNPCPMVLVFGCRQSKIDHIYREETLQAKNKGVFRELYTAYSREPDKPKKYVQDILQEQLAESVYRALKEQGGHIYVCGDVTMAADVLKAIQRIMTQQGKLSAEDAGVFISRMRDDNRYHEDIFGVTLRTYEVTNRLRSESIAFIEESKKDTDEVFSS
T1 sequence (P35228 whole entry): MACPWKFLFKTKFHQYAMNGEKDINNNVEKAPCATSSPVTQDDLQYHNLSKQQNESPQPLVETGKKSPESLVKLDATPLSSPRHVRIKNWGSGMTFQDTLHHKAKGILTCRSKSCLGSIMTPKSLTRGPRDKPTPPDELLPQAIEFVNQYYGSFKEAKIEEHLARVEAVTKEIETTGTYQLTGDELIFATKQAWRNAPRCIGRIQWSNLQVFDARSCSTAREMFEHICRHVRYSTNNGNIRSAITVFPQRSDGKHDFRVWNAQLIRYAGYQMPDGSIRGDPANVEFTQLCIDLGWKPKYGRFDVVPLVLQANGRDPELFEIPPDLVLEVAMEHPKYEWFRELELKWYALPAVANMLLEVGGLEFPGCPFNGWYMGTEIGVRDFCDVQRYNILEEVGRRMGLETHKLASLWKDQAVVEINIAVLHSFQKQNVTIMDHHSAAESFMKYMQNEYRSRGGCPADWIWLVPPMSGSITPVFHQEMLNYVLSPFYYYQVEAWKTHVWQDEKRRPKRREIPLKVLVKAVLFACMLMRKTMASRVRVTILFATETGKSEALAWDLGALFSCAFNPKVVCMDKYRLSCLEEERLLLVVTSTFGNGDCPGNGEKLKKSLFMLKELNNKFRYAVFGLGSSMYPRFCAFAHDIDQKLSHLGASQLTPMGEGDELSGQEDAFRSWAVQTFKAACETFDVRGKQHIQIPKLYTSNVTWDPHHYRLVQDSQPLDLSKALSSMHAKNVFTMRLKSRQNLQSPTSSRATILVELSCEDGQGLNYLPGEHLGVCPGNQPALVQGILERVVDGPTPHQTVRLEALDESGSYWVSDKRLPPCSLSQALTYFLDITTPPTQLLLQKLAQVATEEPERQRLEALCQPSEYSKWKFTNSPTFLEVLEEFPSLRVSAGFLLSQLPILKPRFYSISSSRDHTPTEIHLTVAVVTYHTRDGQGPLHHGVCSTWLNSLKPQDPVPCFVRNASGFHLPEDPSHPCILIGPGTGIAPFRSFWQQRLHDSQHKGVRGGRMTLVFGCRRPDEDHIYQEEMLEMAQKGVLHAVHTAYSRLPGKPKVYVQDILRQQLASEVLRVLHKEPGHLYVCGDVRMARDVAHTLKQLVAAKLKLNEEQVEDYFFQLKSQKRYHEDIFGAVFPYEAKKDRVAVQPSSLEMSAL

Take `N=C(N)C1CCCCN1` (stereo not given): the IC50 in assay [1] was over 100000 nM.

As to `N=C(N)C1CCCNC1` (stereo not given), the IC50 in assay [1] worked out at 51000 nM.

Consider `N=C(N)C1CCNCC1`, for which the IC50 in assay [1] is 58000 nM.

For the molecule `N=C(N)C1CCCO1` (stereo not given), the IC50 in assay [1] worked out at 8900 nM.

For the molecule `N=C(N)C1CCCS1` (stereo not given), the IC50 in assay [1] came to 5300 nM.

As for `N=C(N)C1CCCN1` (stereo not given), in assay [1], the IC50 turned out to be 700 nM.

As to `N=C(N)C1C=CCN1` (stereo not given), in assay [1], the IC50 stood at 180 nM.

On to `N=C(N)[C@H]1CCN1`, for which the IC50 in assay [1] turned out to be 30 nM; on Nitric oxide synthase 3, 250 nM; on Nitric oxide synthase 1, 260 nM.

For `N=C(N)[C@@H]1CCN1`, the IC50 in assay [1] came out at 200 nM; at Nitric oxide synthase 3, 2400 nM; at Nitric oxide synthase 1, 1700 nM.

Consider `N=C(N)C1CNC1`, for which the IC50 in assay [1] amounted to 14000 nM.

For the molecule `N=C(N)[C@H]1CCCN1`, the results for the IC50 (in assay [1]; at Nitric oxide synthase 3; at Nitric oxide synthase 1) were 120 nM, 15000 nM and 14000 nM, respectively. Further, in assay [2], the Kd stood at 630 nM.

Consider `N=C(N)[C@@H]1CCCN1`, for which the values for the IC50 (in assay [1]; on Nitric oxide synthase 3; at Nitric oxide synthase 1) were 9400 nM, over 100000 nM and over 100000 nM, respectively. Also, in assay [2], the Kd is over 40000 nM.

On to `N=C(N)C1CCC1` [CYCLOBUTANECARBOXIMIDAMIDE], for which the IC50 in assay [1] stood at 380 nM.

As for `[H]/N=C(/N)C1CCCC1` [CYCLOPENTANECARBOXIMIDAMIDE], the IC50 in assay [1] is 4400 nM.

With `N=C(N)C1CC1` [CYCLOPROPANECARBOXIMIDAMIDE], the half-inhibitory concentration (IC50) in assay [1] amounted to 790 nM.
